Assay results reported in patent US20240101540A1, “TARGETED PROTEIN DEGRADATION OF PARP14 FOR USE IN THERAPY” (Ribon Therapeutics, Inc., priority 2022, published 2024).
Counter-ions that a name gives are not always drawn.

Target: T1, HiBiT tagged PARP14 (Homo sapiens, UniProt Q460N5)
T1 construct: engineered to contain a HiBiT tag on both alleles of the PARP14 gene; endogenous in cells; host or cells: Jurkat cells stably transfected with LgBiT (Promega), PARP14 locus edited by CRISPR/Cas9
Assay: HiBiT assay for the degradation of PARP14 (HiBiT tagged PARP14 in LgBiT expressing Jurkat cells, 2 or 24 hours)
Type: cell-based
Settings: Assay B (Example B): HiBiT tagged PARP14 degradation in LgBiT expressing Jurkat cells
Experimental: Jurkat cells stably transfected with LgBiT (Promega) were engineered to contain a HiBiT tag on both alleles of the PARP14 gene (Genbank Accession Number: NM_017554) via CRISPR/Cas9 editing. The HiBiT tag is an 11 amino acid tag created by Promega that associates with LgBiT protein to form the NanoLuc® tag on the C-terminus of PARP14. Clones were isolated and confirmed for the HiBiT tag via Sanger sequencing.
Degradation of PARP14 protein was assessed by measuring the luminescence of the HiBiT tag associating with the LgBiT protein as a proxy for the PARP14 protein.
Jurkat cells were diluted to 250,000 cells per mL and then added to assay plate (Corning 3574) using a Multidrop (Thermo Fisher) to add 20 μL per well of the 384 well plate, resulting in 5,000 cells per well. 20 nL of a dose response curve diluted in DMSO of each test compound was added to the cell plate using a Mosquito (TTP Labtech) and the plate was incubated at 37° C. for 2 or 24 hours. Assay plate was brought to room temperature then 5 μL per well of Live Cell Substrate (Promega) was added to the plate. Luminescence was measured on an Envision (Perkin Elmer).
The average DMSO was calculated from 32 wells containing 0.1% DMSO only in columns 12 and 24 of the assay plate. The % of DMSO values were calculated as described below: […]
The % of DMSO values were plotted as a function of compound concentration and the following 4-parameter fit was applied to derive the DC50 values:
where top, bottom, and Hill Coefficient are allowed to float. Y is the % of DMSO and X is the compound concentration.
DC50 data for the Example compounds is provided below in Table 2 (“+” is ≤0.03 μM; “++” is ≥0.03 μM).

T1 sequence (Q460N5 whole entry): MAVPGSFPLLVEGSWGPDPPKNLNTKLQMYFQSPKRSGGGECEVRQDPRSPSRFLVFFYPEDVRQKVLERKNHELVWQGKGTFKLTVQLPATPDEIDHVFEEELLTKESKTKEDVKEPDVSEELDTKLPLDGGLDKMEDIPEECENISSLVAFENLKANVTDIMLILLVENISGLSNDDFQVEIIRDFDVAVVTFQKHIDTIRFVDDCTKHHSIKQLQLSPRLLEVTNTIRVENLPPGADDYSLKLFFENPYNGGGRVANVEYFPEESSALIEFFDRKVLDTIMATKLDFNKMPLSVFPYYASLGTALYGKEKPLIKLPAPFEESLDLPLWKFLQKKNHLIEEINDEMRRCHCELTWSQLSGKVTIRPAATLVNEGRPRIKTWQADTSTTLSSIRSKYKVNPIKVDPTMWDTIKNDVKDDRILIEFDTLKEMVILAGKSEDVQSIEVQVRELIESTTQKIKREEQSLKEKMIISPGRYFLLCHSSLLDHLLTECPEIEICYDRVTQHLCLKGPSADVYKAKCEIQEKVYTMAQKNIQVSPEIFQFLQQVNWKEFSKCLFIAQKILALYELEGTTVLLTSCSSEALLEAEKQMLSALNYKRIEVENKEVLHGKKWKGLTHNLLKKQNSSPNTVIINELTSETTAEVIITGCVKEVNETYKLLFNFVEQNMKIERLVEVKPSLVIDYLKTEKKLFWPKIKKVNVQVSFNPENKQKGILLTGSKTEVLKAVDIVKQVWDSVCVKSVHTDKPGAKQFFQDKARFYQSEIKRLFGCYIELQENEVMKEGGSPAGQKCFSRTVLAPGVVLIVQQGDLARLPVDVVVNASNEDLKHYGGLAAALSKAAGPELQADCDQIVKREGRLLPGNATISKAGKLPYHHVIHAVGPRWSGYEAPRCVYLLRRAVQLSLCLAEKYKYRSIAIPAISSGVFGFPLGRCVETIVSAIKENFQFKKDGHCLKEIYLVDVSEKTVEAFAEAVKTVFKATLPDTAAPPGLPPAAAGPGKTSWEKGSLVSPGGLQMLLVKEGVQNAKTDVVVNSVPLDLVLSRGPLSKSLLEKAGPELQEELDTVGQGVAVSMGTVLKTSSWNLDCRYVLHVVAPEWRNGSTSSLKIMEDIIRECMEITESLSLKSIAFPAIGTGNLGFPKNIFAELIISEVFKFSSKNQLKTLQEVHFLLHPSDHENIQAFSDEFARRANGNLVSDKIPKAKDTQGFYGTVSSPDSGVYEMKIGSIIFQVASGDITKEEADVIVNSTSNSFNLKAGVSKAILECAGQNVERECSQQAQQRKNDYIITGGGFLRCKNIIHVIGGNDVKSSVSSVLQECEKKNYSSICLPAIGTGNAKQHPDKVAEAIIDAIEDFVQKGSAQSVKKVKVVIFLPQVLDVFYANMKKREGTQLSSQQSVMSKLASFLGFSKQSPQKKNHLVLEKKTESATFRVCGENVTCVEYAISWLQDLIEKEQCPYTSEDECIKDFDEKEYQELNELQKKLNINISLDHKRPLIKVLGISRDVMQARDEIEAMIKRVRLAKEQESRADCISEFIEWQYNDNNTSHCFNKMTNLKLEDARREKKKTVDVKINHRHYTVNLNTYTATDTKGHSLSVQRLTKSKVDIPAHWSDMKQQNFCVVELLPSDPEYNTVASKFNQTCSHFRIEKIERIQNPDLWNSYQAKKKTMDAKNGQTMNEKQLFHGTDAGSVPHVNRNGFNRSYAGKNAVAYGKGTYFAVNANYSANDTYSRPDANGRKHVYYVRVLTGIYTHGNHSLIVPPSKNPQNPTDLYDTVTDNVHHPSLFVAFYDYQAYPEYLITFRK

SMILES | DC50 [nM]
O=C1CCC(Nc2ccc(N3CCN(CCN4CCC(COc5cc(F)c6c(=O)[nH]c(COC7CCOCC7)nc6c5)CC4)CC3)c(F)c2)C(=O)N1 (racemic) [Example 99, 3-((3-fluoro-4-(4-(2-(4-(((5-fluoro-4-oxo-2-(((tetrahydro-2H-pyran-4-yl)oxy)methyl)-3,4-dihydroquinazolin-7-yl)oxy)methyl)piperidin-1-yl)ethyl)piperazin-1-yl)phenyl)amino)piperidine-2,6-dione] | < 30

Same assay, conditions: Assay B (Example B): HiBiT tagged PARP14 degradation in LgBiT expressing Jurkat cells, read-out: DC50

SMILES | DC50 [nM]
O=C1CCC(Nc2ccc(N3CCN(CCN4CCC(COc5cc(F)c6c(=O)[nH]c(CSC7CCOCC7)nc6c5)CC4)CC3)c(F)c2)C(=O)N1 (single isomer, unassigned) [Example 64a, 3-((3-fluoro-4-(4-(2-(4-(((5-fluoro-4-oxo-2-(((tetrahydro-2H-pyran-4-yl)thio)methyl)-3,4-dihydroquinazolin-7-yl)oxy)methyl)piperidin-1-yl)ethyl)piperazin-1-yl)phenyl)amino)piperidine-2,6-dione] | < 30
O=C1CCC(Nc2ccc(N3CCN(CCN4CCC(COc5cc(F)c6c(=O)[nH]c(CSC7CCOCC7)nc6c5)CC4)CC3)c(F)c2)C(=O)N1 (single isomer, unassigned) [Example 64b, 3-((3-fluoro-4-(4-(2-(4-(((5-fluoro-4-oxo-2-(((tetrahydro-2H-pyran-4-yl)thio)methyl)-3,4-dihydroquinazolin-7-yl)oxy)methyl)piperidin-1-yl)ethyl)piperazin-1-yl)phenyl)amino)piperidine-2,6-dione] | < 30
O=C1CCC(Nc2ccc(N3CCN(CCN4CCC(COc5cc(F)c6c(=O)[nH]c(COC7CCOCC7)nc6c5)CC4)CC3)c(F)c2)C(=O)N1 (single isomer, unassigned) [Example 99a, 3-((3-fluoro-4-(4-(2-(4-(((5-fluoro-4-oxo-2-(((tetrahydro-2H-pyran-4-yl)oxy)methyl)-3,4-dihydroquinazolin-7-yl)oxy)methyl)piperidin-1-yl)ethyl)piperazin-1-yl)phenyl)amino)piperidine-2,6-dione] | < 30
O=C1CCC(Nc2ccc(N3CCN(CCN4CCC(COc5cc(F)c6c(=O)[nH]c(COC7CCOCC7)nc6c5)CC4)CC3)c(F)c2)C(=O)N1 (single isomer, unassigned) [Example 99b, 3-((3-fluoro-4-(4-(2-(4-(((5-fluoro-4-oxo-2-(((tetrahydro-2H-pyran-4-yl)oxy)methyl)-3,4-dihydroquinazolin-7-yl)oxy)methyl)piperidin-1-yl)ethyl)piperazin-1-yl)phenyl)amino)piperidine-2,6-dione] | < 30
O=C1CCC(Nc2ccc(N3CCC(N4CCC(COc5cc(F)c6c(=O)[nH]c(CCC7CCOCC7)nc6c5)CC4)CC3)c(F)c2)C(=O)N1 (single isomer, unassigned) [Example 117a, 3-((3-fluoro-4-(4-(((5-fluoro-4-oxo-2-(2-(tetrahydro-2H-pyran-4-yl)ethyl)-3,4-dihydroquinazolin-7-yl)oxy)methyl)-[1,4′-bipiperidin]-11′-yl)phenyl)amino)piperidine-2,6-dione] | < 30
O=C1CCC(Nc2ccc(N3CCC(N4CCC(COc5cc(F)c6c(=O)[nH]c(CCC7CCOCC7)nc6c5)CC4)CC3)c(F)c2)C(=O)N1 (single isomer, unassigned) [Example 117b, 3-((3-fluoro-4-(4-(((5-fluoro-4-oxo-2-(2-(tetrahydro-2H-pyran-4-yl)ethyl)-3,4-dihydroquinazolin-7-yl)oxy)methyl)-[1,4′-bipiperidin]-11′-yl)phenyl)amino)piperidine-2,6-dione] | < 30
Cn1c(=O)n(C2CCC(=O)NC2=O)c2ccc(N3CCN(CCN4CCC(COc5cc(F)c6c(=O)[nH]c(CSC7CCOCC7)nc6c5)CC4)CC3)cc21 (centres unmarked) [Example 91, 3-(5-(4-(2-(4-(((5-fluoro-4-oxo-2-(((tetrahydro-2H-pyran-4-yl)thio)methyl)-3,4-dihydroquinazolin-7-yl)oxy)methyl)piperidin-1-yl)ethyl)piperazin-1-yl)-3-methyl-2-oxo-2,3-dihydro-1H-benzo[d]imidazol-1-yl)piperidine-2,6-dione] | < 30
O=C1CCC(Nc2ccc3c(c2)CN(CCN2CCC(COc4cc(F)c5c(=O)[nH]c(CSC6CCOCC6)nc5c4)CC2)C3)C(=O)N1 (centres unmarked) [Example 92, 3-((2-(2-(4-(((5-fluoro-4-oxo-2-(((tetrahydro-2H-pyran-4-yl)thio)methyl)-3,4-dihydroquinazolin-7-yl)oxy)methyl)piperidin-1-yl)ethyl)isoindolin-5-yl)amino)piperidine-2,6-dione] | < 30
O=C1CCC(NC(=O)c2ccc(N3CCN(CCN4CCC(COc5cc(F)c6c(=O)[nH]c(CSC7CCOCC7)nc6c5)CC4)CC3)cc2F)C(=O)N1 (centres unmarked) [Example 93, N-(2,6-dioxopiperidin-3-yl)-2-fluoro-4-(4-(2-(4-(((5-fluoro-4-oxo-2-(((tetrahydro-2H-pyran-4-yl)thio)methyl)-3,4-dihydroquinazolin-7-yl)oxy)methyl)piperidin-1-yl)ethyl)piperazin-1-yl)benzamide] | < 30
O=C1CCC(Nc2ccc(N3CCN(CCN4CCC(COc5cc(F)c6c(=O)[nH]c(CSC7CCOCC7)nc6c5)CC4)CC3)cc2F)C(=O)N1 (centres unmarked) [Example 97, 3-((2-fluoro-4-(4-(2-(4-(((5-fluoro-4-oxo-2-(((tetrahydro-2H-pyran-4-yl)thio)methyl)-3,4-dihydroquinazolin-7-yl)oxy)methyl)piperidin-1-yl)ethyl)piperazin-1-yl)phenyl)amino)piperidine-2,6-dione] | < 30
O=C1CCC(Nc2cc(F)c(N3CCN(CCN4CCC(COc5cc(F)c6c(=O)[nH]c(CSC7CCOCC7)nc6c5)CC4)CC3)c(F)c2)C(=O)N1 (centres unmarked) [Example 98, 3-((3,5-difluoro-4-(4-(2-(4-(((5-fluoro-4-oxo-2-(((tetrahydro-2H-pyran-4-yl)thio)methyl)-3,4-dihydroquinazolin-7-yl)oxy)methyl)piperidin-1-yl)ethyl)piperazin-1-yl)phenyl)amino)piperidine-2,6-dione formate] | < 30
O=C1CCC(Nc2ccc(N3CCN(CCN4CCC(COc5cc(F)c6c(=O)[nH]c(CCC7CCOCC7)nc6c5)CC4)CC3)c(F)c2)C(=O)N1 (centres unmarked) [Example 100, 3-((3-fluoro-4-(4-(2-(4-(((5-fluoro-4-oxo-2-(2-(tetrahydro-2H-pyran-4-yl)ethyl)-3,4-dihydroquinazolin-7-yl)oxy)methyl)piperidin-1-yl)ethyl)piperazin-1-yl)phenyl)amino)piperidine-2,6-dione] | < 30

Second part, the molecule after the results:

DC50 [nM] | SMILES
< 30 | O=C1CCC(Nc2ccc(N3CCC(N4CC(N5CCC(COc6cc(F)c7c(=O)[nH]c(CSC8CCOCC8)nc7c6)CC5)C4)CC3)c(F)c2)C(=O)N1 (single isomer, unassigned) [Example 116a, 3-((3-fluoro-4-(4-(3-(4-(((5-fluoro-4-oxo-2-(((tetrahydro-2H-pyran-4-yl)thio)methyl)-3,4-dihydroquinazolin-7-yl)oxy)methyl)piperidin-1-yl)azetidin-1-yl)piperidin-1-yl)phenyl)amino)piperidine-2,6-dione]
< 30 | O=C1CCC(Nc2ccc(N3CCC(N4CC(N5CCC(COc6cc(F)c7c(=O)[nH]c(CSC8CCOCC8)nc7c6)CC5)C4)CC3)c(F)c2)C(=O)N1 (single isomer, unassigned) [Example 116b, 3-((3-fluoro-4-(4-(3-(4-(((5-fluoro-4-oxo-2-(((tetrahydro-2H-pyran-4-yl)thio)methyl)-3,4-dihydroquinazolin-7-yl)oxy)methyl)piperidin-1-yl)azetidin-1-yl)piperidin-1-yl)phenyl)amino)piperidine-2,6-dione]
< 30 | O=C1CCC(Nc2ccc(N3CCC(N4CC(N5CCC(COc6cc(F)c7c(=O)[nH]c(COC8CCOCC8)nc7c6)CC5)C4)CC3)c(F)c2)C(=O)N1 (single isomer, unassigned) [Example 136a, 3-((3-fluoro-4-(4-(3-(4-(((5-fluoro-4-oxo-2-(((tetrahydro-2H-pyran-4-yl)oxy)methyl)-3,4-dihydroquinazolin-7-yl)oxy)methyl)piperidin-1-yl)azetidin-1-yl)piperidin-1-yl)phenyl)amino)piperidine-2,6-dione]
< 30 | O=C1CCC(Nc2ccc(N3CCC(N4CC(N5CCC(COc6cc(F)c7c(=O)[nH]c(COC8CCOCC8)nc7c6)CC5)C4)CC3)c(F)c2)C(=O)N1 (single isomer, unassigned) [Example 136b, 3-((3-fluoro-4-(4-(3-(4-(((5-fluoro-4-oxo-2-(((tetrahydro-2H-pyran-4-yl)oxy)methyl)-3,4-dihydroquinazolin-7-yl)oxy)methyl)piperidin-1-yl)azetidin-1-yl)piperidin-1-yl)phenyl)amino)piperidine-2,6-dione]
